Measurements from the supplement of paper PMC11061612.

Legend:
Carboplatin = compound: C1CC(C1)(C(=O)[O-])C(=O)[O-].N.N.[Pt+2] [Carboplatin]; settings: max 10 µM
Summary of the method: (§1)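 Cancer cell lines were plated in 1536-well plates in 7.5 μl of DMEM/F12 or RPMI with 10% FBS and kept 24 hours at 37°C and 5% CO2 before 72 hours of dosing, with final DMSO typically 0.2%. CellTiter-Glo 2.0 luminescence measured viability, scaled between blank-well and DMSO-well means. Dose responses were fitted to a two-parameter logistic curve with a non-linear mixed effects model. This fit gives the single-agent IC50.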

AZD5363 = compound: C1CN(CCC1(C(=O)N[C@@H](CCO)C2=CC=C(C=C2)Cl)N)C3=NC=NC4=C3C=CN4 [AZD5363]; settings: max 10 µM
Summary of the method: as §1

AZD1775 = compound: C=CCn1c(=O)c2cnc(Nc3ccc(N4CCN(C)CC4)cc3)nc2n1-c1cccc(C(C)(C)O)n1 [AZD1775]; settings: max 3 µM
Summary of the method: as §1

Trametinib = compound: CC(=O)Nc1cccc(-n2c(=O)n(C3CC3)c(=O)c3c(Nc4ccc(I)cc4F)n(C)c(=O)c(C)c32)c1 [Trametinib]; settings: max 1 µM
Summary of the method: as §1

Paclitaxel = compound: CC(=O)O[C@H]1C(=O)[C@@]2(C)[C@H]([C@H](OC(=O)c3ccccc3)[C@]3(O)C[C@H](OC(=O)[C@H](O)[C@@H](NC(=O)c4ccccc4)c4ccccc4)C(C)=C1C3(C)C)[C@]1(OC(C)=O)CO[C@@H]1C[C@@H]2O [Paclitaxel]; settings: max 3 µM
Summary of the method: as §1

Palbociclib = compound: CC(=O)c1c(C)c2cnc(Nc3ccc(N4CCNCC4)cn3)nc2n(C2CCCC2)c1=O [Palbociclib]; settings: max 10 µM
Summary of the method: as §1

AZD1390 = compound: CC(C)n1c(=O)n(C)c2cnc3cc(F)c(-c4ccc(OCCCN5CCCCC5)nc4)cc3c21 [AZD1390]; settings: max 0.3 µM
Summary of the method: as §1

Venetoclax = compound: CC1(C)CCC(CN2CCN(c3ccc(C(=O)NS(=O)(=O)c4ccc(NCC5CCOCC5)c([N+](=O)[O-])c4)c(Oc4cnc5[nH]ccc5c4)c3)CC2)=C(c2ccc(Cl)cc2)C1 [Venetoclax]; settings: max 1 µM
Summary of the method: as §1

Dasatinib = compound: CC1=C(C(=CC=C1)Cl)NC(=O)C2=CN=C(S2)NC3=CC(=NC(=N3)C)N4CCN(CC4)CCO [Dasatinib]; settings: max 2 µM
Summary of the method: as §1

SG3199 = compound: CC1=CN2[C@@H](C1)C=NC3=CC(=C(C=C3C2=O)OC)OCCCCCOC4=C(C=C5C(=C4)N=C[C@@H]6CC(=CN6C5=O)C)OC [SG3199]; settings: max 0.001 µM
Summary of the method: as §1

AZD2811 = compound: CCN(CCO)CCCOc1ccc2c(Nc3cc(CC(=O)Nc4cccc(F)c4)[nH]n3)ncnc2c1 [AZD2811]; settings: max 1 µM
Summary of the method: as §1

SN-38 = compound: CCc1c2c(nc3ccc(O)cc13)-c1cc3c(c(=O)n1C2)COC(=O)[C@]3(O)CC [SN-38]; settings: max 0.3 µM
Summary of the method: as §1

AZD0156 = compound: CN(C)CCCOc1ccc(-c2ccc3ncc4c(c3c2)n(C2CCOCC2)c(=O)n4C)cn1 [AZD0156]; settings: max 3 µM
Summary of the method: as §1

AZD4320 = compound: CN(CC[C@H](CSC1=CC=CC=C1)NC2=C(C=C(C=C2)S(=O)(=O)NC(=O)C3=CC=C(C=C3)N4CCC(CC4)[C@H](C5=CC=CC=C5C6=CC=C(C=C6)Cl)O)S(=O)(=O)C(F)(F)F)CCO [AZD4320]; settings: max 1 µM
Summary of the method: as §1

Alisertib = compound: COc1cc(Nc2ncc3c(n2)-c2ccc(Cl)cc2C(c2c(F)cccc2OC)=NC3)ccc1C(=O)O [Alisertib]; settings: max 10 µM
Summary of the method: as §1

Etoposide = compound: COc1cc([C@@H]2c3cc4c(cc3[C@@H](O[C@@H]3O[C@@H]5CO[C@@H](C)O[C@H]5[C@H](O)[C@H]3O)[C@H]3COC(=O)[C@H]23)OCO4)cc(OC)c1O [Etoposide]; settings: max 10 µM
Summary of the method: as §1

Gefitinib = compound: COc1cc2ncnc(Nc3ccc(F)c(Cl)c3)c2cc1OCCCN1CCOCC1 [Gefitinib]; settings: max 10 µM
Summary of the method: as §1

Prexasertib = compound: COc1cccc(OCCCN)c1-c1cc(Nc2cnc(C#N)cn2)n[nH]1 [Prexasertib]; settings: max 1 µM
Summary of the method: as §1

Doxorubicin = compound: COc1cccc2c1C(=O)c1c(O)c3c(c(O)c1C2=O)C[C@@](O)(C(=O)CO)C[C@@H]3O[C@H]1C[C@H](N)[C@H](O)[C@H](C)O1 [Doxorubicin]; settings: max 1 µM
Summary of the method: as §1

AZD5153 = compound: COc1nnc2ccc(N3CCC(c4ccc(OCCN5CCN(C)C(=O)[C@H]5C)cc4)CC3)nn12 [AZD5153]; settings: max 1 µM
Summary of the method: as §1

Lapatinib = compound: CS(=O)(=O)CCNCc1ccc(-c2ccc3ncnc(Nc4ccc(OCc5cccc(F)c5)c(Cl)c4)c3c2)o1 [Lapatinib]; settings: max 10 µM
Summary of the method: as §1

AZD8186 = compound: C[C@@H](Nc1cc(F)cc(F)c1)c1cc(C(=O)N(C)C)cc2c(=O)cc(N3CCOCC3)oc12 [AZD8186]; settings: max 10 µM
Summary of the method: as §1

Crizotinib = compound: C[C@@H](Oc1cc(-c2cnn(C3CCNCC3)c2)cnc1N)c1c(Cl)ccc(F)c1Cl [Crizotinib]; settings: max 10 µM
Summary of the method: as §1

Savolitinib = compound: C[C@@H](c1ccc2nccn2c1)n1nnc2ncc(-c3cnn(C)c3)nc21 [Savolitinib]; settings: max 1 µM
Summary of the method: as §1

AZD6738 = compound: C[C@@H]1COCCN1C2=NC(=NC(=C2)C3(CC3)[S@](=N)(=O)C)C4=C5C=CNC5=NC=C4 [AZD6738]; settings: max 10 µM
Summary of the method: as §1

AZD5991 = compound: Cc1c2c(nn1C)CSCc1cc(n(C)n1)CSc1cc(c3ccccc3c1)OCCCc1c(C(=O)O)n(C)c3c-2c(Cl)ccc13 [AZD5991]; settings: max 1 µM
Summary of the method: as §1

AZD7648 = compound: Cc1cc2ncnn2cc1Nc1ncc2c(n1)n(C1CCOCC1)c(=O)n2C [AZD7648]; settings: max 10 µM
Summary of the method: as §1

Taselisib = compound: Cc1nc(-c2cn3c(n2)-c2ccc(-c4cnn(C(C)(C)C(N)=O)c4)cc2OCC3)n(C(C)C)n1 [Taselisib]; settings: max 10 µM
Summary of the method: as §1

Selumetinib = compound: Cn1cnc2c(F)c(Nc3ccc(Br)cc3Cl)c(C(=O)NOCCO)cc21 [Selumetinib]; settings: max 10 µM
Summary of the method: as §1

SRA737 = compound: N#Cc1cnc(Nc2cc(NC[C@H]3CNCCO3)c(C(F)(F)F)cn2)cn1 [SRA737]; settings: max 10 µM
Summary of the method: as §1

MK-2206 = compound: NC1(c2ccc(-c3nc4ccn5c(=O)[nH]nc5c4cc3-c3ccccc3)cc2)CCC1 [MK-2206]; settings: max 10 µM
Summary of the method: as §1

Gemcitabine = compound: Nc1ccn([C@@H]2O[C@H](CO)[C@@H](O)C2(F)F)c(=O)n1 [Gemcitabine]; settings: max 0.3 µM
Summary of the method: as §1

[1] = compound: O=C(Nc1ccc2[nH]nc(-c3ccncc3)c2c1)[C@@H]1CCN(CC(=O)N2CCN(c3ccc(-c4ncccn4)cc3)CC2)C1; settings: max 5 µM
Summary of the method: as §1

Olaparib = compound: O=C(c1cc(Cc2n[nH]c(=O)c3ccccc23)ccc1F)N1CCN(C(=O)C2CC2)CC1 [Olaparib]; settings: max 10 µM
Summary of the method: as §1

5-Fluorouracil = compound: O=c1[nH]cc(F)c(=O)[nH]1 [5-Fluorouracil]; settings: max 20 µM
Summary of the method: as §1

TGW (Neuroblastoma)
IC50, cell viability 72 h (Carboplatin): > 10 µM | IC50, cell viability 72 h (AZD5363): > 10 µM | IC50, cell viability 72 h (AZD1775): 0.571 µM | IC50, cell viability 72 h (Trametinib): > 1 µM | IC50, cell viability 72 h (Paclitaxel): 0.108 µM | IC50, cell viability 72 h (Palbociclib): > 10 µM | IC50, cell viability 72 h (AZD1390): > 0.3 µM | IC50, cell viability 72 h (Venetoclax): > 1 µM | IC50, cell viability 72 h (Dasatinib): > 2 µM | IC50, cell viability 72 h (SG3199): > 0.001 µM | IC50, cell viability 72 h (AZD2811): > 1 µM | IC50, cell viability 72 h (SN-38): 0.0505 µM | IC50, cell viability 72 h (AZD0156): > 3 µM | IC50, cell viability 72 h (AZD4320): 0.127 µM | IC50, cell viability 72 h (Alisertib): 0.162 µM | IC50, cell viability 72 h (Etoposide): > 10 µM | IC50, cell viability 72 h (Gefitinib): > 10 µM | IC50, cell viability 72 h (Prexasertib): 0.0277 µM | IC50, cell viability 72 h (Doxorubicin): 0.521 µM | IC50, cell viability 72 h (AZD5153): > 1 µM | IC50, cell viability 72 h (Lapatinib): > 10 µM | IC50, cell viability 72 h (AZD8186): > 10 µM | IC50, cell viability 72 h (Crizotinib): 6.84 µM | IC50, cell viability 72 h (Savolitinib): > 1 µM | IC50, cell viability 72 h (AZD6738): 7.37 µM | IC50, cell viability 72 h (AZD5991): > 1 µM | IC50, cell viability 72 h (AZD7648): > 10 µM | IC50, cell viability 72 h (Taselisib): > 10 µM | IC50, cell viability 72 h (Selumetinib): > 10 µM | IC50, cell viability 72 h (SRA737): > 10 µM | IC50, cell viability 72 h (MK-2206): > 10 µM | IC50, cell viability 72 h (Gemcitabine): 0.159 µM | IC50, cell viability 72 h [1]: > 5 µM | IC50, cell viability 72 h (Olaparib): > 10 µM | IC50, cell viability 72 h (5-Fluorouracil): > 20 µM
